How the values were obtained:
[1] = test system: Human dermal fibroblasts; test: Collagen stimulation: procollagen type I C-peptide (PIP) EIA on conditioned medium; format: cell-based; details: 0.0005% compound, 48-hour incubation, increase in collagen over the vehicle control
Protocol: (§1) Collagen. Human dermal fibroblasts (Cascade Biologics, Portland, Oreg.) were plated at in 96-well culture plates in supplemented medium (DMEM, 10% Fetal Bovine Serum, 1% Penicillin/Streptomycin and 1% L-Glutamine) overnight in humidified atmosphere of 10% CO2 at 37° C. The following day, the medium was replaced with fresh medium (DMEM, 1% Penicillin/Streptomycin and 1% L-Glutamine) and the actives dissolved in a vehicle were added to the wells in triplicate. Vehicle was used as control. Following 48-hour incubation, the plates were removed from the incubator and the medium from each well was collected for the procollagen assay.
Collage production was measured using procollagen type I C-peptide (PIP) EIA kit (Takara Bio, Inc., Japan). Briefly, the conditioned medium was diluted 1:10 in Sample Diluent. 20 μl of diluted conditioned medium and 100 μl of antibody-POD conjugate solution were added to the wells of the Takara ELISA plate. The ELISA plate was incubated at 37° C. for 3 hours before the wells were washed four times with 400 μl of 1×PBS. At the end of wash, 100 μl of substrate solution (supplied with kit) was added to the wells and incubated at room temperature for 15 minutes. […] The absorbance was measured on a spectrophotometer at 450 nm wavelength. The amount of procollagen peptide in the conditioned medium was calculated from the standard curve. […]

[2] = test system: Human dermal fibroblasts; test: Hyaluronic acid stimulation: hyaluronic acid test kit on conditioned medium; format: cell-based; details: 0.0005% compound, 48-hour incubation, increase in hyaluronic acid over the vehicle control
Protocol: as §1, with “Human” for “Collagen. Human”, “hyaluronic acid” for “procollagen”
Hyaluronic acid production was measured using hyaluronic acid test kit (Corgenix, Inc. CO, USA). Briefly, 100 μl diluted conditioned medium was added to appropriate microwells and was incubated for 60 minutes at room temperature. After the incubation is complete, the conditioned medium was removed and 100 μl HRP-conjugated HABP solution was added to each well and incubated for 30 minutes at room temperature. Wash each well 4 times with PBS after the incubation is complete. Add 100 μl One-component Substrate Solution to each well and incubate for 30 minutes at room temperature. Add 100 μl Stopping Solution to stop the enzyme reaction and read the O.D. of each well at 450 nm. The amount of hyaluronic acid in the conditioned medium was calculated from the standard curve. […]

COc1ccccc1CNc1nc(-c2ccc(O)c(C(N)=O)c2)cs1 [Formula I(c)]
Collagen stimulation [1]: + (The “+” describes a stimulation of between 21-40%)

COc1cccc(-c2nc(-c3ccc(O)c(C(N)=O)c3)cs2)c1OC [Formula I(d)]
Collagen stimulation [1]: + (The “+” describes a stimulation of between 21-40%)
Hyaluronic acid stimulation [2]: + (The “+” describes a stimulation of between 21-40%)
